Results from US20250288558A1, “THERAPEUTIC FOR SPINAL CORD INJURY TO INDUCE HYPOTHERMIA” (The Trustees of Indiana University, priority 2024, published 2025).
Where a name gives a salt, the structure may show the parent alone.

Key:
mouse with a SCI [1] = settings: 4 hours after 1 ml saline IP injection, n=5
mouse with a SCI [2] = settings: metabolic cage, n=5
[3] = test system: c-fos positive neurons in raphe nuclei; settings: during urodynamic recording
From the text: During the urodynamic recording, brain stem neurons controlling the urination within the spared supraspinal circuitry were activated and expressed c-fos.

[4] = test system: mice with moderate contusive spinal cord injury (SCI) at thoracic 9 (T9)
Method: The effects of different doses of Dex on hypothermia induction in none-injury young adult c57 BL/6 mice was tested. […] Further, we examined the change of Dex induced hypothermia when the routine Avertin (2.5%), a wildly used anesthetic for small animal surgery was applied.
(§1) Therefore, we compared the functional outcomes of Dex treated SCI mice with SCI only mice using multiple behavior tests post-trauma. C57 BL/6 wild type mice (female) at age of 8 weeks were randomly assigned into three different groups, including sham, SCI, and SCI+Dex. Then the moderate T9 contusive SCI was introduced in two injury groups using LISA injury model. Mice in sham and SCI only group were put on the heating pad to maintain their normal body temperature, while mice in Dex treated group were exposed in ambient room temperature of 24.5° C. for hypothermia during whole surgery and recovery process. One hour after injury, one dose of Dex (100 μg/kg) was IP administrated to rapidly induce early moderate to modest therapeutic hypothermia (30-32° C.). All mice body temperature were measured by rectal probe every 30 minutes to monitor the hypothermia after surgery till the mice fully waked up and back to normothermia. After SCI injury, at different time, multiple behavioral tests, were applied to examine functional outcomes and the potential neuroprotective effects of Dex treatment (FIG. 3A). The Basso Mouse Scale (BMS) was a reliable measurement that developed to examine the locomotion in spinal cord injured mice. It has been widely used in mouse functional evaluation and serves as an indicator of recovery. This test examines different locomotor categories such as paralysis, weight support, stepping, trunk stability, and so on. The scores ranged from 9 to 0 that represent normal movement to complete paralysis, respectively. Three days prior surgery, the BMS scores of all mice in different groups were measured. Only mice with 9 score were kept. The mice with score lower than 9 were replaced to make sure mice in different groups had same baseline of locomotion. After surgery, the BMS score was repeatedly measured at 3 days, 1 week, 2 weeks, 3 weeks, 4 weeks, 5 weeks, and 6 weeks (FIG. 3B).
Contusive spinal cord injury: Adult female C57BL/6 mice (8 weeks old, 18-22 g) were purchased from The Jackson Laboratory (Bar Harbor, ME). Depending on different injury model, mice were either randomly divided into three groups: sham, SCI+heating pad, and SCI+Dex for LISA injury model, or were randomly divided into four groups: sham, SCI+heating pad, SCI+Dex, and SCI+Conventional hypothermia for Infinite Horizons (IH) model. […]

[5] = test system: mice with moderate T9 contusive SCI
From the text: as §1
Contusive spinal cord injury: Adult female C57BL/6 mice (8 weeks old, 18-22 g) were purchased from The Jackson Laboratory (Bar Harbor, ME). Depending on different injury model, mice were either randomly divided into three groups: sham, SCI+heating pad, and SCI+Dex for LISA injury model, or were randomly divided into four groups: sham, SCI+heating pad, SCI+Dex, and SCI+Conventional hypothermia for Infinite Horizons (IH) model. […] All animal care, handling, and surgery were performed in accordance with the Guide for the Care and Use of Laboratory Animals (National Research Council) and the Guidelines of the Institutional Animal Care and Use Committee of Indiana University School of Medicine. Spinal cord contusion was made at the thoracic (T9) vertebral level. After avertin anesthesia, animals will be placed on a thermometer-controlled heating pad for the duration of recovery (except Dex and conventional hypothermia treated group). For LISA injury model, C57/6J mice were anesthetized. A midline skin incision was made to expose the thoracolumbar spine, followed by the removal of the T9 spinous process and lamina to expose the dura mater. The displacement was set to be 0.5 mm. The T9 contusion injury was performed using a LISA impactor, where the injury level was determined using a laser sensor. After injury confirmation, the surgical area is sutured, the animal is hydrated and monitored for post-operative care, including analgesia and bladder expression. For IH model, a 1-inch skin incision was placed on the dorsal midline, musculature was retracted, and then the spinal column was visualized and placed into a stabilizer with two clamps retracting the spinous processes of the vertebrae directly surrounding the injury site. A laminectomy was performed to expose the dura.

[6] = test system: spinal cord coronal sections of SCI mice; settings: female, n=3
Method: We first measured the lesion size and spared white matter using cresyl violet and cosin staining.
Tissue Processing: All the animals were deeply anesthetized with Avertin and then perfused transcardially with cold saline, followed by a fixative containing 4% paraformaldehyde (PFA) in PBS. The spinal cord was removed, post-fixed overnight in PFA, and cryoprotected for 48 hours in 30% sucrose. Serial 30 μm thick coronal sections were cut using a cryostat (Leica CM 1950), mounted on slides and stored at −20° C. The sections were then processed for histopathological analysis.
Cresyl violet and cosin staining: A set of slides were first removed from the freezer and allowed to air dry for a minimum of 60 minutes at room temperature. Subsequently, the sections were treated with two 5-minute rinses in 10 mM PBS, followed by a 1-minute rinse in ddH2O. Next, slides were immersed for 20 minutes in Nissl stain, followed by two 5-minute rinses in ddH2O. Subsequently, slides were sequentially immersed in 90% ethanol (3 minutes), 95% ethanol (3 minutes), two changes of 100% ethanol (3 minutes each), and finally, three changes of 100% xylene (3 minutes each). Lastly, slides were mounted using Permount.

Structure (SMILES): Cc1cccc([C@H](C)c2cnc[nH]2)c1C [Dex, dexmedetomidine hydrochloride]
- frequency of urination (mouse with a SCI [1]): 6±0.82
- urine volume (mouse with a SCI [1]): 0.3 ± 0.04 mL
- urination volume (mouse with a SCI [2]; 24 hours): 0.48 ± 0.22 mL
- residual urine volume (mouse with a SCI [2]): 0.4 ± 0.22 mL
- c-fos positive neurons in raphe nuclei vs. SCI group [3]: Significantly more c-fos positive neurons
- time at which normal body temperature was regained ([4]; Dex 100 μg/kg 1 hour after T9 SCI): 24 hr post trauma
- duration of hypothermia ([4]; Dex 100 μg/kg one hour after T9 SCI (LISA)): up to 16 hours
- time to spontaneously rewarm to normal temperature ([4]; Dex 100 μg/kg one hour after T9 SCI, after the hypothermia period): 5 to 6 h
- rewarming rate ([4]; Dex 100 μg/kg one hour after T9 SCI, spontaneous rewarming, hydrochloride): < 1.0 °C per hour
- locomotion recovery (BMS) compared to none-treatment SCI group ([5]; FIG. 3B, female, n=10): better locomotion recovery
- improvement of locomotor function in BMS test ([5]; compared with about 25% for hypothermia alone (meta-analysis)): 70%
- BMS score compared to SCI only group ([5]; day 3 post-injury, Dex 100 μg/kg IP one hour after injury): did not show the significant difference
- average BMS score ([5]; one week after surgery, Dex 100 μg/kg IP): ~5
- increase of BMS score compared to SCI only group ([5]; week 6 (end of test)): over 65%
- BMS score ([5]; week 6 (end of test), Dex 100 μg/kg IP): about 7.8
- total area of spinal cord section, SCI+Dex vs. SCI [6]: no significant difference
